Test results reported in ChEMBL document CHEMBL4507268 (2021).

Columns and labels:
Conditions in all cases: Compound concentration 1.0 uM
[1] = biological target: T1, Protein kinase C iota type (Homo sapiens) (UniProt P41743)
T1 sequence (whole entry): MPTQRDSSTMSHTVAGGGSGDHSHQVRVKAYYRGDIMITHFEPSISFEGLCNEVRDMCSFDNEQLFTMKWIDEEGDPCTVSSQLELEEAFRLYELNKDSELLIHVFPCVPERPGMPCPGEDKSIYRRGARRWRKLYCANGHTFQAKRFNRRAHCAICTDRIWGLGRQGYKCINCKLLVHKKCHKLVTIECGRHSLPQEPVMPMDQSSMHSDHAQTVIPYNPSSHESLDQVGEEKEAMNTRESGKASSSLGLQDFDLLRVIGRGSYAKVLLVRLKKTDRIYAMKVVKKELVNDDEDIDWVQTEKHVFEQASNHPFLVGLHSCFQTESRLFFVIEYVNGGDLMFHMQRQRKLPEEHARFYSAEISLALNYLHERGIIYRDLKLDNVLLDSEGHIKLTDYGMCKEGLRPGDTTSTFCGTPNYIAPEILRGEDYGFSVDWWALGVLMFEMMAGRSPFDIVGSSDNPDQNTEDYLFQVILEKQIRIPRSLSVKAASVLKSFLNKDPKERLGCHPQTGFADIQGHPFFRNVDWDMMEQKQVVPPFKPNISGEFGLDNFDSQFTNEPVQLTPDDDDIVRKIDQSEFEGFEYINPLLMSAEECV

[2] = biological target: T2, Rhodopsin kinase GRK1 (Homo sapiens) (UniProt Q15835)
T2 sequence (whole entry): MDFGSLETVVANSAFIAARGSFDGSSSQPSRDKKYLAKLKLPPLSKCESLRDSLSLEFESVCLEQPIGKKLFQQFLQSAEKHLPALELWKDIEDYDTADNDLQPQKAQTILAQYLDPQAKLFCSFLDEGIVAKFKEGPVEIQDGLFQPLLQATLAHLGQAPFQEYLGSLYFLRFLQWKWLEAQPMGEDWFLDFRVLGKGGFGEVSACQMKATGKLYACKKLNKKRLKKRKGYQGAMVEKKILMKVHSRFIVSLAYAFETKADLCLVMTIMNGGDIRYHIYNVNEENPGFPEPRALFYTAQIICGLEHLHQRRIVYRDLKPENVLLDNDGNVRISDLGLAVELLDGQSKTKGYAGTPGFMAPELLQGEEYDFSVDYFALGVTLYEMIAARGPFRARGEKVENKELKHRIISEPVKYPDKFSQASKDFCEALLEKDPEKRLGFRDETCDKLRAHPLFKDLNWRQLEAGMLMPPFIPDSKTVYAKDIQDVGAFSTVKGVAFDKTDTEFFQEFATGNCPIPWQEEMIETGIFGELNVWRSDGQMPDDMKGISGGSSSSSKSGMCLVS

[3] = biological target: T3, MAP kinase-activated protein kinase 5 (Homo sapiens) (UniProt Q8IW41)
T3 sequence (whole entry): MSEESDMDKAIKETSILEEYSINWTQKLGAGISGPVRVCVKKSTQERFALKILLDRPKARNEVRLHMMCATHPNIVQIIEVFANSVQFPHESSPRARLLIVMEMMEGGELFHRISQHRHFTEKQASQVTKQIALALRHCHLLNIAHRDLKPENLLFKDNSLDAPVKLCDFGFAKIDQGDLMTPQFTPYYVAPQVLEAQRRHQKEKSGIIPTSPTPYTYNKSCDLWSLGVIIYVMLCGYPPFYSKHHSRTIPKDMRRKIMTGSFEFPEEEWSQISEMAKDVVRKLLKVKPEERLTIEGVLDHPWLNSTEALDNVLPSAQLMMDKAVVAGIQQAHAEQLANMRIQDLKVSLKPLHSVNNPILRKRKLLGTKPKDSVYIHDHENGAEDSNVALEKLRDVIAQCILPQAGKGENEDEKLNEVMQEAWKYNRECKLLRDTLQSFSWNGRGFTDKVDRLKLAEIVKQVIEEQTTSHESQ

[4] = biological target: Serine/threonine-protein kinase 32B (Homo sapiens) (UniProt Q9NY57)
[5] = biological target: Serine/threonine-protein kinase MRCK alpha (Homo sapiens) (UniProt Q5VT25)
[6] = biological target: T4, Serine/threonine-protein kinase TAO2 (Homo sapiens) (UniProt Q9UL54)
T4 sequence (whole entry): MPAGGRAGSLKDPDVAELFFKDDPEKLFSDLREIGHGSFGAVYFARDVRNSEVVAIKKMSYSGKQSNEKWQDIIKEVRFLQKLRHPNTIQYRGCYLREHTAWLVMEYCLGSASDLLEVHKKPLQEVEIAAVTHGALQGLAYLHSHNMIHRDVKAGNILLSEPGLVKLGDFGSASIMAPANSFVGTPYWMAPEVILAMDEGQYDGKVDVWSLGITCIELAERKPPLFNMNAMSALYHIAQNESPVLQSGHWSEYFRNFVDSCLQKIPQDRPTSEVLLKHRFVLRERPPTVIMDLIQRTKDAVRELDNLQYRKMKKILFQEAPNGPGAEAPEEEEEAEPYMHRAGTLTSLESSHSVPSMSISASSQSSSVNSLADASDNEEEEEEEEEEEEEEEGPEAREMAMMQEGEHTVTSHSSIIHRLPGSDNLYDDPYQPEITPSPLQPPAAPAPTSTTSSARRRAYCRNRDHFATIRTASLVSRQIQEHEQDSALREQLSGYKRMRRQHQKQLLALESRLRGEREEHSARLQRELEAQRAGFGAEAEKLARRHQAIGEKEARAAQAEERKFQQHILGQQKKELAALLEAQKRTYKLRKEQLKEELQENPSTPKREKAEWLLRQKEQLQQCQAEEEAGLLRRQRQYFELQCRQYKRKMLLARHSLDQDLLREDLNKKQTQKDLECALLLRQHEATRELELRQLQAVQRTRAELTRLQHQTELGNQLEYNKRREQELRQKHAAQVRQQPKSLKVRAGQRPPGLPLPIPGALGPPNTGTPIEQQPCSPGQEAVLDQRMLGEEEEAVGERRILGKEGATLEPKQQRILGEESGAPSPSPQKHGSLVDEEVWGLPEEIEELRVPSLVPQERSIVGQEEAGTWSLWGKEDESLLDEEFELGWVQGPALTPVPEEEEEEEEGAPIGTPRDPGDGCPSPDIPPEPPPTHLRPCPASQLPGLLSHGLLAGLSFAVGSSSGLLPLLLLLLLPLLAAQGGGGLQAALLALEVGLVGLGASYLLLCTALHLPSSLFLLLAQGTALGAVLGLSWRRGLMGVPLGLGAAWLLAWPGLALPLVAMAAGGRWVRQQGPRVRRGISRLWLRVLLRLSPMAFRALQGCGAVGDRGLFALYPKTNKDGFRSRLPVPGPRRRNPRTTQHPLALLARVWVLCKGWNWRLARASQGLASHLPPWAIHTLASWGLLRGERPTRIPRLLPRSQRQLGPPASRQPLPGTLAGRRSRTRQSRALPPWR

Measured: % residual kinase activity

Serine/threonine-protein kinase 32B (Homo sapiens), sequence (Q9NY57 whole entry): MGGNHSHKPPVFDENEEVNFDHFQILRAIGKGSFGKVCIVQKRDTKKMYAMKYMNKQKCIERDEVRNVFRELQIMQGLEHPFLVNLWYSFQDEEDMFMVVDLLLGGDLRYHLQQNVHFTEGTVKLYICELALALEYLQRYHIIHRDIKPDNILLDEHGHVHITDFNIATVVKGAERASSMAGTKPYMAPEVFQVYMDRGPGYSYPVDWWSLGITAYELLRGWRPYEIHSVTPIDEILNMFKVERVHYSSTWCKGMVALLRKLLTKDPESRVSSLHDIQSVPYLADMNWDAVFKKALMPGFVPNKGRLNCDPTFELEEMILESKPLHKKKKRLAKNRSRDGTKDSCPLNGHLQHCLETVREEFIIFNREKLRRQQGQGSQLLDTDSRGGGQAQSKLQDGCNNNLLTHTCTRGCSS
Serine/threonine-protein kinase MRCK alpha (Homo sapiens), sequence (Q5VT25 whole entry): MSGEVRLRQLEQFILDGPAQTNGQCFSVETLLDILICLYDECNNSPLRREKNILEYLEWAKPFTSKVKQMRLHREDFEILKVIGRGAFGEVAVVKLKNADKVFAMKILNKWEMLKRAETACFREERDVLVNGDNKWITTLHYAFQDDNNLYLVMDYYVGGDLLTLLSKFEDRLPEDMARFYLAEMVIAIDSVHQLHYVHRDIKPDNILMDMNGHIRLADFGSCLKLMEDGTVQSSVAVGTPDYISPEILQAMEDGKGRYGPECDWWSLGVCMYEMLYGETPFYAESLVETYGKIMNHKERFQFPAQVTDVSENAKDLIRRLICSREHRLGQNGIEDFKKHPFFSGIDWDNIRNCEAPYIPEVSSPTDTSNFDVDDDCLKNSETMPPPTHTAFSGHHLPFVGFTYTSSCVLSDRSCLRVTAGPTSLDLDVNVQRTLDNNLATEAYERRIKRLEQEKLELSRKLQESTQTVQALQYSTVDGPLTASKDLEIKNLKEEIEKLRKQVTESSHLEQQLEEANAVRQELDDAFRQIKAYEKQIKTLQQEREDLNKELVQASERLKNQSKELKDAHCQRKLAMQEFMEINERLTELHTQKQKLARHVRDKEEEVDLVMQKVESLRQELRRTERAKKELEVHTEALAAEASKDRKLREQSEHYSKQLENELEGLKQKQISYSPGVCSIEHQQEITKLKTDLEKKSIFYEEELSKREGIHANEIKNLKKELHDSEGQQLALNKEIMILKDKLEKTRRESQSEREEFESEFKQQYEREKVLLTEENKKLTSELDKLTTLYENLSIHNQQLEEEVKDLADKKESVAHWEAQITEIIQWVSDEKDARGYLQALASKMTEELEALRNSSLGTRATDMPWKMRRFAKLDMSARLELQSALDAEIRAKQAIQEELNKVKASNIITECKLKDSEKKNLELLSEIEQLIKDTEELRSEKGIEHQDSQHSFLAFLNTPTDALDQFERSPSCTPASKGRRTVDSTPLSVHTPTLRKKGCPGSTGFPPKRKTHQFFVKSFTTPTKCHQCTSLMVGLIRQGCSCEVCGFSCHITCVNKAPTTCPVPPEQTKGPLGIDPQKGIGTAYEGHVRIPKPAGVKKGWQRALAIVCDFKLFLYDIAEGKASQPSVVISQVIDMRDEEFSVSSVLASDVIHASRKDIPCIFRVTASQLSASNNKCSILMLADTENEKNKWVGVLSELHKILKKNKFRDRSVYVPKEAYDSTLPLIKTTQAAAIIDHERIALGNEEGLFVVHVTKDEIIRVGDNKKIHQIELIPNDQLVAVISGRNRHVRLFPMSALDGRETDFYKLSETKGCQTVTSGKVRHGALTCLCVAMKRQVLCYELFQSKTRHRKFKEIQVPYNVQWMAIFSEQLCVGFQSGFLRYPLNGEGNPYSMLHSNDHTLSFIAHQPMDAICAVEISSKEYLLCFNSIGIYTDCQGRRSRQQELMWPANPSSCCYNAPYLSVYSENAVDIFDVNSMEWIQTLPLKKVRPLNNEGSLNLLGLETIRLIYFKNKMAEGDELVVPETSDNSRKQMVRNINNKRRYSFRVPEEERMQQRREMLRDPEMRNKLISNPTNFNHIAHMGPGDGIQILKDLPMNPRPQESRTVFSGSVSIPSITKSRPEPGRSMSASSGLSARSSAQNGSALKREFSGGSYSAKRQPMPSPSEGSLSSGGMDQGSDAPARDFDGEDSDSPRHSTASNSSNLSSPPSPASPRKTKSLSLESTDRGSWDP

CN1CCN(c2cnc3c(C4CCN(C(=O)c5ccc(OC(F)(F)F)cc5N)CC4)ncnc3c2)CC1 [BAY-885]
inactive: [1] 102% | [2] 117% | [3] 109% | [4] 98% | [5] 111% | [6] 113%
